This note sets out measurements from patent US20230202997A1, “CHROMANOL, QUINONE OR HYDROQUINONE COMPOUNDS FOR TREATMENT OF SEPSIS” (Sulfateq B.V., priority 2020, published 2023).

One assay has as its system TNFα mRNA expression. Briefly: Inhibition of LPS-induced TNFα mRNA expression in NRK52E. Type of assay: cell-based, Rat. To be noted: 10 μM for 30 min, then LPS 24 hours. As for the experimental part: Rat kidney epithelial cells (ATCC #CRL-1571) were maintained in DMEM medium containing 10% fetal bovine serum, and 1% Penicillin-Streptomycin solution (Sigma-Aldrich). NRK52E cells were passaged by trypsinization when the cultures reached a confluency of 70%. For all experiments, NRK52E cells were seeded at 0.6·10^5 cells/cm^2 and allowed to adhere for 24 hours.
HUVEC and NRK52E cells were pre-incubated with SUL compounds (10 μM) for 30 min and subsequently exposed to LPS for 24 hours under standard culture conditions. Cells were lysed in triZOL reagens (Invitrogen) and total RNA isolated according to manufacturers' instruction. 1 μg total RNA per sample was reverse transcribed using the FirstAid Reverse Transcription Kit (ThermoFisher). Copy-DNA equivalents of 5 ng total RNA were amplified on a ViiA7 Real-time PCR system (ThermoFisher, Waltham, Mass.) using iTaq Universal SYBR Green Supermix (Bio-Rad, Hercules, Calif.) and primers specific for tumor necrosis factor alpha, interleukin 1 beta, interleukin-6 and beta actin as loading control. Amplification was performed for 40 cycles of 95° C. for 30 s, 60° C. for 1 min. Relative mRNA expression was calculated as 2^−(Cq^gene^−Cq^reference^) and normalized to unstimulated control cells (100% inhibition) and vehicle-treated and LPS exposed cells (0% inhibition). The following primers were used: […]

For a further assay, the system named is CLP-induced sepsis. Briefly: Cecal ligation and puncture (CLP) sepsis model, xyphoid temperature. It is filed as in vivo. To be noted: CLP mice; SUL-138 5 mg/kg s.c. 2 hours before and 8 hours after surgery; 24 hr after procedure. How it is done: Male C57/BL6J mice were housed at room temperature at a light-dark cycle of 12:12 hour. Animals were fed ad libitum using standard animal lab chow and they had free access to drinking water at all times.
To induce sepsis, the standard cecal ligation and puncture (CLP) model was used. Animals were anesthetized by subcutaneous injection of xylazine/ketamine (100/10 mg/kg), followed by administration of buprenorphine (0.1 mg/kg) as analgesic. After confirmation of anesthesia by lack of response to paw pinch and eye reflex, the abdomen was shaved, cleaned, and de-germed using a povidone-iodine solution before a 1-cm midline incision was made. The cecum was ligated with a 6-0 suture at half the distance between distal pole and the base of the cecum and punctured once with a 21-Gauge needle (‘through-and-through’ from mesenteric toward anti-mesenteric direction) which is an accepted model for ‘mid-grade’ sepsis. A small amount of stool (2-3 mm) was then extruded to ensure wound patency. The cecum was repositioned, thereby taking care not to spill fecal material on the wound edges, followed by closure of the abdomen by running sutures to the abdominal musculature and short interrupted sutures to the skin. Next, 1 ml of saline (warmed, 0.9% NaCl s.c.) was administered to compensate for the expected relative volume depletion due to the onset of sepsis.
Mice recovered at 26-28° C. […]

The test system of the next assay is NO production in HUVEC. As to the kind of experiment: Endothelial NO production (nitrate in conditioned medium), basal and after LPS. It is filed as cell-based, Human. As to conditions: 10 μM pre-treatment, LPS 100 ng/ml for 24 hours. How it is done:
(§1) Human Umbilical Cord Endothelial Cells (HUVEC, Lonza CC-2519) were maintained on 1% gelatin-coated culture flasks in RPMI1640 medium containing 20% fetal bovine serum, 2 mM Glutamine (Sigma-Aldrich), 1% Penicillin-Streptomycin solution (Sigma-Aldrich) and 50 μg/ml Bovine Pituitary Extract (Invitrogen). HUVEC were passaged by trypsinization when the cultures reach a confluency of 70%. For all experiments, HUVEC were seeded at 0.6·10^5 cells/cm^2 and allowed to adhere for 24 hours.
Cellular production of NO was approximated by measuring nitrate concentrations in culture media using the Measure-IT™ High-Sensitivity Nitrite Assay Kit (#M36051, ThermoFisher) according to manufacturer's instructions. […] Therefore, nitrate concentrations in conditioned media are a good approximate to assess cellular NO production. 50 μl conditioned medium derived from a single 96-wells plate well was used per assay and normalized against protein concentration. All experiments were performed in quadruplicate.
Endotoxins suppress endothelial NO production by limiting the activity of eNOS. HUVEC were pre-treated with vehicle (DMSO), BN-80933, SUL-138, or SUL-150 or (all 10 μM) prior to endotoxin (LPS 100 ng/ml) exposure for 24 hours. The nitrate levels in the conditioned medium from endothelial cells exposed to LPS averaged at 160 pmol/mg protein (˜33% reduction versus non LPS exposed HUVEC, p=0.002), which was lower than basal control levels. BN-80933 further suppressed the nitrate levels in the conditioned medium (FIG. 7A) to an average of 90 pmol/mg protein (p=0.008).

The test system of another assay is HUVEC. As to the kind of experiment: Cell viability after hypothermia-rewarming stress (Neutral Red). Type of assay: cell-based, Human. To be noted: 10 μM for 1 hour, 4° C. for 24 hours followed by 37° C. for 3 hours. How it is done: as §1
HUVEC were pre-treated with BN-80933, SUL-138 or SUL-150 (all 10 μM) for 1 hour in a humidified incubator at 37° C. Following pre-treatment, HUVEC were placed in a cold room (2-8° C.) for 24 hours and subsequently placed back at 37° C. for a 3 hour rewarming period. After 1 hour of rewarming, cell culture medium was replaced by prewarmed and filtered 0.4 mg/mL Neutral Red (#N463 8, Sigma-Aldrich) in culture medium. After the remaining 2 hour rewarming period, HUVEC were washed with PBS and NRU was solubilized in 100 μL resorption solution (50% ethanol, 1% ascetic acid in dH2O). The absorbance was measured at a wavelength of 550 nm on a BioTek ELx808 plate reader. The recorded OD550 nm values were normalized to control samples that were maintained at 37° C. at all times, which were assumed to be 100% viable.

On to `Cc1c(C)c2c(c(C)c1O)CC[C@@](C)(C(=O)N1CCN(CCO)CC1)O2` [SUL-138, (S)-(6-hydroxy-2,5,7,8-tetramethylchroman-2-yl)(4-(2-hydroxyethyl)piperazin-1-yl)methanone], for which the “inhibition of LPS-induced mRNA expression of TNFα” value in the assay with TNFα mRNA expression is listed as 52.6 ± 11.6 %. Moreover, the xiphoid temperature entry in the assay on CLP-induced sepsis is listed as “restored after 24 hours”. Besides, the “nitrate levels in the conditioned medium after LPS” value with NO production in HUVEC was “mitigated the LPS-induced reduction in nitrate levels and their levels did not change from basal nitrate level”. The “reduction in cell viability versus normothermic control cells” value in the assay with HUVEC was around 15%.
